Results from PubChem BioAssay AID282 (DTP/NCI, 2004).
Several values for one entry are separate records, joined by “and”; a condition that tells them apart may be missing. Identical values can stand only once. Toxic doses and inconclusive results are not listed. The calls were made as follows: active = survival T/C of 150% or more; inactive = T/C below 125% in these data.

System: BDF1 mice, L1210 terephthalanilide-resistant leukemia ip, survival T/C
Experiment: NCI In Vivo Anticancer Drug Screen. Data for tumor model L1210 Leukemia resistant to A Terephthalanilide; NSC 38280 (intraperitoneal) in B6D2F1 (BDF1) mice
Conditions: endpoint: mean survival time, higher = longer survival
Description: The antitumor activity of compounds was measured in mice bearing transplantable tumors. Survival or tumor size were measured and the results are expressed as the measurement made in the treated group (T) divided by the measurement made in the vehicle treated control group (C). The tumor model used in this assay is L1210 Leukemia resistant to A Terephthalanilide; NSC 38280 (intraperitoneal) in B6D2F1 (BDF1) mice

[1] = dose: 5.0 mg/kg/injection, schedule: Q01DX010 (ip), vehicle: saline
[2] = dose: 10.0 mg/kg/injection, schedule: Q01DX010 (ip), vehicle: saline
[3] = dose: 20.0 mg/kg/injection, schedule: Q01DX010 (ip), vehicle: saline
[4] = dose: 37.5 mg/kg/injection, schedule: Q01DX Z (ip), vehicle: carboxymethylcellulose (CMC)
[5] = dose: 50.0 mg/kg/injection, schedule: Q01DX Z (ip), vehicle: carboxymethylcellulose (CMC)
[6] = dose: 500.0 mg/kg/injection, schedule: Q01DX Z (ip), vehicle: saline

Measured: T/C

CS(=O)(=O)OCCCl
inactive: dose: 18.8 mg/kg/injection, schedule: Q01DX010 (ip), vehicle: saline 99 % of control and 108 % of control | dose: 37.5 mg/kg/injection, schedule: Q01DX010 (ip), vehicle: saline 90 % of control and 103 % of control | dose: 44.0 mg/kg/injection, schedule: Q01DX Z (ip), vehicle: saline 103 % of control | dose: 75.0 mg/kg/injection, schedule: Q01DX010 (ip), vehicle: saline 107 % of control and 108 % of control | dose: 87.5 mg/kg/injection, schedule: Q01DX Z (ip), vehicle: saline 115 % of control | dose: 150.0 mg/kg/injection, schedule: Q01DX010 (ip), vehicle: saline 89 % of control | dose: 175.0 mg/kg/injection, schedule: Q01DX Z (ip), vehicle: saline 119 % of control

Cc1cc(N(CCCl)CCCl)ccc1N=Nc1ccccc1C(=O)O
inactive: dose: 0.5 mg/kg/injection, schedule: Q01DX Z (ip), vehicle: carboxymethylcellulose (CMC) 105 % of control | dose: 1.0 mg/kg/injection, schedule: Q01DX Z (ip), vehicle: carboxymethylcellulose (CMC) 102 % of control | dose: 2.0 mg/kg/injection, schedule: Q01DX Z (ip), vehicle: carboxymethylcellulose (CMC) 115 % of control | [1] 108 % of control and 113 % of control | dose: 6.25 mg/kg/injection, schedule: Q01DX Z (ip), vehicle: carboxymethylcellulose (CMC) 111 % of control | [2] 116 % of control and 120 % of control | [3] 118 % of control and 119 % of control | dose: 25.0 mg/kg/injection, schedule: Q01DX Z (ip), vehicle: carboxymethylcellulose (CMC) 115 % of control | [4] 112 % of control | [5] 100 % of control

N#[N+]c1cnc([O-])[nH]c1=O
inactive: dose: 1.25 mg/kg/injection, schedule: Q01DX010 (ip), vehicle: saline 110 % of control | dose: 2.5 mg/kg/injection, schedule: Q01DX Z (ip), vehicle: alkali diluted with saline 102 % of control | dose: 5.0 mg/kg/injection, schedule: Q01DX Z (ip), vehicle: alkali diluted with saline 102 % of control | dose: 7.5 mg/kg/injection, schedule: Q01DX Z (ip), vehicle: alkali diluted with saline 106 % of control | dose: 15.0 mg/kg/injection, schedule: Q01DX Z (ip), vehicle: alkali diluted with saline 108 % of control | dose: 20.0 mg/kg/injection, schedule: Q01DX Z (ip), vehicle: saline 96 % of control
active: dose: 10.0 mg/kg/injection, schedule: Q01DX Z (ip), vehicle: saline 172 % of control

O=c1[nH]c(=O)n(C2CC(O)C(CO)O2)cc1F (centres undefined)
inactive: [2] 103 % of control | dose: 12.5 mg/kg/injection, schedule: Q01DX Z (ip), vehicle: saline 118 % of control | [3] 110 % of control and 119 % of control | dose: 25.0 mg/kg/injection, schedule: Q01DX Z (ip), vehicle: saline 116 % of control | dose: 37.5 mg/kg/injection, schedule: Q01DX Z (ip), vehicle: saline 122 % of control | dose: 40.0 mg/kg/injection, schedule: Q01DX010 (ip), vehicle: saline 95 % of control | [6] 119 % of control
active: dose: 50.0 mg/kg/injection, schedule: Q01DX Z (ip), vehicle: saline 178 % of control | dose: 80.0 mg/kg/injection, schedule: Q01DX010 (ip), vehicle: saline 151 % of control | dose: 100.0 mg/kg/injection, schedule: Q01DX Z (ip), vehicle: saline 183 % of control

O=CN(O)CC(=O)O
inactive: dose: 125.0 mg/kg/injection, schedule: Q01DX010 (ip), vehicle: saline 93 % of control | dose: 125.0 mg/kg/injection, schedule: Q01DX Z (ip), vehicle: saline 100 % of control | dose: 250.0 mg/kg/injection, schedule: Q01DX010 (ip), vehicle: saline 93 % of control | dose: 250.0 mg/kg/injection, schedule: Q01DX Z (ip), vehicle: saline 91 % of control | dose: 375.0 mg/kg/injection, schedule: Q01DX Z (ip), vehicle: saline 101 % of control | dose: 500.0 mg/kg/injection, schedule: Q01DX010 (ip), vehicle: saline 101 % of control | [6] 97 % of control

CN(C)c1ccc(/C=C\c2ccnc3ccccc23)cc1
inactive: [1] 98 % of control | dose: 8.0 mg/kg/injection, schedule: Q01DX010 (ip), vehicle: saline 100 % of control | dose: 12.0 mg/kg/injection, schedule: Q01DX010 (ip), vehicle: saline 100 % of control | dose: 18.0 mg/kg/injection, schedule: Q01DX010 (ip), vehicle: saline 92 % of control and 95 % of control | dose: 18.75 mg/kg/injection, schedule: Q01DX Z (ip), vehicle: carboxymethylcellulose (CMC) 101 % of control | dose: 27.0 mg/kg/injection, schedule: Q01DX010 (ip), vehicle: saline 89 % of control | [4] 95 % of control | [5] 90 % of control
